In patent US8735584B2 (Merck Patent GmbH, priority 2008, dated 2014):

Key:
Assay type in all cases: biochemical
ABL = biological target: T1, ABL (Homo sapiens, UniProt P00519); experiment: Desktop Profiler kinase panel, ABL; details: for inhibition at 10 µM: 10 micromolar concentration of the compound, read-out: Percent Inhibition ABL; for inhibition at 1 µM: 1 micromolar concentration of the compound
T1 construct: purchased Caliper Life Sciences
Protocol: (§1) The Aurora assays described here are performed on two Caliper Life Sciences systems: the LC3000 and the Desktop Profiler. These provide data on enzyme activity via measurement of the relative amounts of phosphorylated or unphosphorylated fluorescently labelled substrate peptide at the end of an enzymatic reaction. These different states of peptide are resolved by applying a potential difference across the sample. The presence of the charged phosphate group on the product (as opposed to the substrate) causes a different peptide mobility between the two peptides. This is visualized by excitation of the fluorescent label on the substrate and product peptides and represented as peaks within the analysis software.
(§2) The Desktop Profiler utilizes the same principle as the LC3000 for calculating percentage conversion of a substrate to product. Caliper Life Sciences provides proprietary flash frozen pre-made 384 well plates containing selected kinases. Each column in the 384 well plate contains a particular selected kinase. A second plate, the ‘substrate plate’ contains a mix of fluorescently labeled peptide substrate and ATP. These are arranged in columns so that transfer for substrate plate to enzyme plate provides the correct enzyme with the correct substrate/ATP concentration. Compounds are added to a thawed enzyme plate in the desired format, in single concentrations. Reactions are initiated by transfer of the substrate/ATP mix from the substrate plate. The enzyme plate is incubated for 90 mins at 25 C. The reaction is stopped by addition of 70 ul of Stop Buffer (100 mM HEPES pH 7.5, 0.015% Brij-35, 10 mM EDTA (Sigma, E7889)).
(§3) Reading of the plate in the Profiler is identical to the LC3000, and the ratio between substrate and product peaks provides the activity of the enzyme in that well. This is best represented by a plate heat map which colors each well by percent inhibition as compared to positive and negative controls (no inhibitors and no ATP respectively).
(§4) In the following Tables 3a-4-b, which show the results of the desktop profiler measurements, “+” means 50-70% inhibition, “++” means 70-90% inhibition, and “+++” means >90% inhibition. The enzymes tested for profiling were ABL, AKT1, AKT2, AurA, CHK1, CHK2, CK1d, Erk1, Erk2, FYN, GSK3b, INSR, LCK, LYN, MAPKAPK2, MET, MSK1, p38a, PKA, PKCz, PKD2, PRAK, RSK1 and SRC.

FYN = biological target: T2, FYN (Homo sapiens, UniProt P06241); experiment: Desktop Profiler kinase panel, FYN; details: for inhibition at 10 µM: 10 micromolar concentration of the compound, read-out: Percent Inhibition FYN; for inhibition at 1 µM: 1 micromolar concentration of the compound
T2 construct: purchased Caliper Life Sciences
T2 sequence (P06241 whole entry, species assumed): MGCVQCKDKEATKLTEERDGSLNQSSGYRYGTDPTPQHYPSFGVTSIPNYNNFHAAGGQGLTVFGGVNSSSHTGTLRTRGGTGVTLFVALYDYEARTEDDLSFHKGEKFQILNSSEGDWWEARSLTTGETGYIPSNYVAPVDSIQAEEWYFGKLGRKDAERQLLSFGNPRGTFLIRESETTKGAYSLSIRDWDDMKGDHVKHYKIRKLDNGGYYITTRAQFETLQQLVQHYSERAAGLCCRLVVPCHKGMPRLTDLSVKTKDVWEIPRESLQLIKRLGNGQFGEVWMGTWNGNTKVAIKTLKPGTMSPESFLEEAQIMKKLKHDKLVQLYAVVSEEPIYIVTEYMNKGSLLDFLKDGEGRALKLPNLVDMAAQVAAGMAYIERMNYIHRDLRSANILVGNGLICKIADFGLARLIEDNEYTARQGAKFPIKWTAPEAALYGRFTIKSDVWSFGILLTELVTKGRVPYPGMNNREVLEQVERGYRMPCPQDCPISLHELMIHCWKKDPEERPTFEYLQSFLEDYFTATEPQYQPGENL
Protocol: as §1, §2, §3, §4

SRC = biological target: T3, SRC (Homo sapiens, UniProt P12931); experiment: Desktop Profiler kinase panel, SRC; details: for inhibition at 10 µM: 10 micromolar concentration of the compound, read-out: Percent Inhibition SRC; for inhibition at 1 µM: 1 micromolar concentration of the compound
T3 construct: purchased Caliper Life Sciences
T3 sequence (P12931 whole entry, species assumed): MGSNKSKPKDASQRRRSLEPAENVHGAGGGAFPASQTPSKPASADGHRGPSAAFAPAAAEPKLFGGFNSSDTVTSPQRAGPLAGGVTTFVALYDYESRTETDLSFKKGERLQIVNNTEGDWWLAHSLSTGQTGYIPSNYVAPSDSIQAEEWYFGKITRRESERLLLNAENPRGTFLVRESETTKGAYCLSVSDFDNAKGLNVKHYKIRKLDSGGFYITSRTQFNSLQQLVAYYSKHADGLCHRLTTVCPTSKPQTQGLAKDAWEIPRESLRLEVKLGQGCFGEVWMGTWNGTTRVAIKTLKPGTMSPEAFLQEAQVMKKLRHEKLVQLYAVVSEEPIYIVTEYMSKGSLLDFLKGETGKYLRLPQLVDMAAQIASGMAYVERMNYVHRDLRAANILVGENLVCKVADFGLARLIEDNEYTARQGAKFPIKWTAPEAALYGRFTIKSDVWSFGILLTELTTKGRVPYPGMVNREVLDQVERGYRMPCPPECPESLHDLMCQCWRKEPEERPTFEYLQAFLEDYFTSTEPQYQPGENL
Protocol: as §1, §2, §3, §4

LYN = biological target: T4, LYN (Homo sapiens, UniProt P07948); experiment: Desktop Profiler kinase panel, LYN; details: for inhibition at 10 µM: 10 micromolar concentration of the compound, read-out: Percent Inhibition LYN; for inhibition at 1 µM: 1 micromolar concentration of the compound
T4 construct: purchased Caliper Life Sciences
T4 sequence (P07948 whole entry, species assumed): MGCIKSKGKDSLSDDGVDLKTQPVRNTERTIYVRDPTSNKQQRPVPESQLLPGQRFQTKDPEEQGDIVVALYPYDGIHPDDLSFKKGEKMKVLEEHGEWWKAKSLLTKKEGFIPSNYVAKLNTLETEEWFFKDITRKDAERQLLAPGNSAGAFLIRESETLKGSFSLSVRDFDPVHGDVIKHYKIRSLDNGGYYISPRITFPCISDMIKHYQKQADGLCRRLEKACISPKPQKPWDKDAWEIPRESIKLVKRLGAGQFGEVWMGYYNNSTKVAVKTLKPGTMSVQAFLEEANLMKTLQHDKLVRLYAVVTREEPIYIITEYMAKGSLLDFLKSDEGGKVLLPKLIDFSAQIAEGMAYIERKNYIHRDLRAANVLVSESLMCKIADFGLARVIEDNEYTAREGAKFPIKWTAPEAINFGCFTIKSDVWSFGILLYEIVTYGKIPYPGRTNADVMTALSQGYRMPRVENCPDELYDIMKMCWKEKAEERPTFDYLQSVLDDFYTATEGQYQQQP
Protocol: as §1, §2, §3, §4

LCK = biological target: T5, LCK (Homo sapiens, UniProt P06239); experiment: Desktop Profiler kinase panel, LCK; details: for inhibition at 10 µM: 10 micromolar concentration of the compound, read-out: Percent Inhibition LCK; for inhibition at 1 µM: 1 micromolar concentration of the compound
T5 construct: purchased Caliper Life Sciences
T5 sequence (P06239 whole entry, species assumed): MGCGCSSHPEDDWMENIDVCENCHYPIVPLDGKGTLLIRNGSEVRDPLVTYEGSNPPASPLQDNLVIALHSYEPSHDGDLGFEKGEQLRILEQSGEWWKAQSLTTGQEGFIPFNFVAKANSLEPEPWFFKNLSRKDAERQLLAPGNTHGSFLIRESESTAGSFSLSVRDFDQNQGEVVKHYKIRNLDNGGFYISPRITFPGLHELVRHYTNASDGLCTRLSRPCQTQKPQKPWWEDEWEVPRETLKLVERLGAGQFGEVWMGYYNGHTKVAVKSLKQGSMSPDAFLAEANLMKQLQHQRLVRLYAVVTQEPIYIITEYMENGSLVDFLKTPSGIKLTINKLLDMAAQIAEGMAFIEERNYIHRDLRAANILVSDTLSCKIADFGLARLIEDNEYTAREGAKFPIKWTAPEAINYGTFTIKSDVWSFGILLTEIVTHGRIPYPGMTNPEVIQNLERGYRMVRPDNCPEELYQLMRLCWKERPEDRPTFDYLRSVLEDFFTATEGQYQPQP
Protocol: as §1, §2, §3, §4

GSK3b = biological target: T6, GSK3b (Homo sapiens, UniProt P49841); experiment: Desktop Profiler kinase panel, GSK3b; details: 10 micromolar concentration of the compound; read-out: Percent Inhibition GSK3b
T6 construct: purchased Caliper Life Sciences
Protocol: as §1, §2, §3, §4

PKA = biological target: T7, PKA (Homo sapiens, UniProt P17612); experiment: Desktop Profiler kinase panel, PKA; details: 10 micromolar concentration of the compound; read-out: Percent Inhibition PKA
T7 construct: purchased Caliper Life Sciences
Protocol: as §1, §2, §3, §4

CK1d = biological target: T8, CK1d (Homo sapiens, UniProt P48730); experiment: Desktop Profiler kinase panel, CK1d; details: 10 micromolar concentration of the compound; read-out: Percent Inhibition CK1d
T8 construct: purchased Caliper Life Sciences
T8 sequence (P48730 whole entry): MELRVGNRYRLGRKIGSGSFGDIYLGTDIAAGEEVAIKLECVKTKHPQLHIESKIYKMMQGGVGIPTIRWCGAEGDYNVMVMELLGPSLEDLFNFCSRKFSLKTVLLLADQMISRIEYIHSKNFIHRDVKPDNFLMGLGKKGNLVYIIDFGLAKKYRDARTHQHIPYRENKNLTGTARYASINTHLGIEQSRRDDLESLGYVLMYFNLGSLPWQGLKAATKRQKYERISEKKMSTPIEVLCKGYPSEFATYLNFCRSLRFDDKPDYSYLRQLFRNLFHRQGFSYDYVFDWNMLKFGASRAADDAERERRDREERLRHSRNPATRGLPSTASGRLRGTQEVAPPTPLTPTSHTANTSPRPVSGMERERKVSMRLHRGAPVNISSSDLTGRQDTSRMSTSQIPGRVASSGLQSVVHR
Protocol: as §1, §2, §3, §4

CHK2 = biological target: T9, CHK2 (Homo sapiens, UniProt O96017); experiment: Desktop Profiler kinase panel, CHK2; details: for inhibition at 10 µM: 10 micromolar concentration of the compound, read-out: Percent Inhibition CHK2; for inhibition at 1 µM: 1 micromolar concentration of the compound
T9 construct: purchased Caliper Life Sciences
T9 sequence (O96017 whole entry, species assumed): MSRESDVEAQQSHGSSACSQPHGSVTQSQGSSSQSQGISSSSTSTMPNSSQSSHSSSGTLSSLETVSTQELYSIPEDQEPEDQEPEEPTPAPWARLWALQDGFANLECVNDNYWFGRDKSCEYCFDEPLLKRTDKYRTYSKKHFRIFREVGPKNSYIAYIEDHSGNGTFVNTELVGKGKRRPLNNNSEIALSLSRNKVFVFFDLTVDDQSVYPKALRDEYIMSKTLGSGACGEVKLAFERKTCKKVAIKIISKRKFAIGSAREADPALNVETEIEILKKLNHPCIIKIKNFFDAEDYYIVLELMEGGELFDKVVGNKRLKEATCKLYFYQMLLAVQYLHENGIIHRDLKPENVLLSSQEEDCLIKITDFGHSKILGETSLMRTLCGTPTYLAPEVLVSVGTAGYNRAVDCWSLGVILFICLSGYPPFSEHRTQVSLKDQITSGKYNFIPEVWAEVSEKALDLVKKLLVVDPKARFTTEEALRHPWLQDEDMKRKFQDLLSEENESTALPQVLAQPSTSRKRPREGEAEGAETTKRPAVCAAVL
Protocol: as §1, §2, §3, §4

AurA = biological target: T10, AurA (Homo sapiens, UniProt O14965); experiment: Desktop Profiler kinase panel, AurA; details: for inhibition at 1 µM: 1 micromolar concentration of the compound; for inhibition at 10 µM: 10 micromolar concentration of the compound, read-out: Percent Inhibition AurA
T10 construct: purchased Caliper Life Sciences
T10 sequence (O14965 1-403): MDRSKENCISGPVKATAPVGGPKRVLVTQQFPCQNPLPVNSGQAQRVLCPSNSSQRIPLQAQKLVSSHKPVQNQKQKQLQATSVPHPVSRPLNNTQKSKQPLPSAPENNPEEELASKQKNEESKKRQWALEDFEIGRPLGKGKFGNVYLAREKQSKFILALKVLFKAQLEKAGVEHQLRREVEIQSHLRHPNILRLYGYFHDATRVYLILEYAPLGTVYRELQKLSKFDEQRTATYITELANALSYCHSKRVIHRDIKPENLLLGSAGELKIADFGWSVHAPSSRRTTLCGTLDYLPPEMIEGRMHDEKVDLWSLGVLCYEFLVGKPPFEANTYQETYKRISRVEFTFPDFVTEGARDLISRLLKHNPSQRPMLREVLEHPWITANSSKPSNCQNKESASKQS
Protocol: as §1, §2, §3, §4

PKD2 = biological target: T11, PKD2 (Homo sapiens, UniProt Q9BZL6); experiment: Desktop Profiler kinase panel, PKD2; details: 10 micromolar concentration of the compound; read-out: Percent Inhibition PKD2
T11 construct: purchased Caliper Life Sciences
T11 sequence (Q9BZL6 1-878): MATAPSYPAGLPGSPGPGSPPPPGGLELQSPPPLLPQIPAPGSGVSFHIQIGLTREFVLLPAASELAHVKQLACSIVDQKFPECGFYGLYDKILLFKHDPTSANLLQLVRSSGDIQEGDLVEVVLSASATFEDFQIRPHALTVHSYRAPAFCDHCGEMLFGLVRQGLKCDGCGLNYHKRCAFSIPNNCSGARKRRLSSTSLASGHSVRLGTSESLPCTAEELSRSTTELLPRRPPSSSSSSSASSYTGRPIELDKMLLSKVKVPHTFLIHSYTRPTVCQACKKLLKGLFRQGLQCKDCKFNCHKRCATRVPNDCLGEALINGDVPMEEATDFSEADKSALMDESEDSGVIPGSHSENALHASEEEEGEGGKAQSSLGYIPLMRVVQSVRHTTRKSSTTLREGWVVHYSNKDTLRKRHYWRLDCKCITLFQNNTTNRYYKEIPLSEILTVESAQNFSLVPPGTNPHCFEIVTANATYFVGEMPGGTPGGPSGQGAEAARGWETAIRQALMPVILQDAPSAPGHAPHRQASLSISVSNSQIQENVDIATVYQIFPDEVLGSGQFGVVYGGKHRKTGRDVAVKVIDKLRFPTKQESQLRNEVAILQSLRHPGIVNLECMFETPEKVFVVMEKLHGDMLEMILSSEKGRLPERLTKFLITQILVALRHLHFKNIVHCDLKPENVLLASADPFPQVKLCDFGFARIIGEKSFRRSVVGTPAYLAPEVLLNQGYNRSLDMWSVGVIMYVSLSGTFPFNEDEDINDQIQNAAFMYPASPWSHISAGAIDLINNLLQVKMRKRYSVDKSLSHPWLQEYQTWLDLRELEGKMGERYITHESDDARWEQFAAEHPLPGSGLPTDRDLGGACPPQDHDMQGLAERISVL
Protocol: as §1, §2, §3, §4

RSK1 = biological target: T12, RSK1 (Homo sapiens, UniProt Q15418); experiment: Desktop Profiler kinase panel, RSK1; details: 10 micromolar concentration of the compound; read-out: Percent Inhibition RSK1
T12 construct: purchased Caliper Life Sciences
T12 sequence (Q15418 whole entry, species assumed): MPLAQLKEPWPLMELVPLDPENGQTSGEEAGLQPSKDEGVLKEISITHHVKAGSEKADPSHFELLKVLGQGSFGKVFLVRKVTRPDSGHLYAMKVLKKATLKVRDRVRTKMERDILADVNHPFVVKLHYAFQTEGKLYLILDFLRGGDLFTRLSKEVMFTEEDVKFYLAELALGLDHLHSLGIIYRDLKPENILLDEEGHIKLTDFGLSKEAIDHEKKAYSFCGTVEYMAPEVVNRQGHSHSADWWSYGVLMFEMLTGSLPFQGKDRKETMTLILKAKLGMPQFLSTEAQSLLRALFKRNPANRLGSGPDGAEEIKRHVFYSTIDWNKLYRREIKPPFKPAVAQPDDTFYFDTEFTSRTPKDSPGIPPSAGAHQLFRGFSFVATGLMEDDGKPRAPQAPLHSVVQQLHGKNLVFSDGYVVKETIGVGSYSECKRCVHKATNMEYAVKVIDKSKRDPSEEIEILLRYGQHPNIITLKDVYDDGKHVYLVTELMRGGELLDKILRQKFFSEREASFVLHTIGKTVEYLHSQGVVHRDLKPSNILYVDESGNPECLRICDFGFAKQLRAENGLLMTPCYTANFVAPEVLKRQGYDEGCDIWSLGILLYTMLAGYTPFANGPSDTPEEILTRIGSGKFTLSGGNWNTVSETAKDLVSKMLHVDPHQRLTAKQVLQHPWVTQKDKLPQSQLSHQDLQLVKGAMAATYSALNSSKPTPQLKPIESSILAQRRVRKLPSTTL
Protocol: as §1, §2, §3, §4

GST-Aurora A = biological target: T13, GST-Aurora A (Homo sapiens, UniProt O14965); experiment: Aurora A IC50, Caliper LC3000 mobility shift assay; details: LC3000 method; 15 uM ATP (the KM value); read-out: Aurora Kinase A Activity (IC50)
T13 construct: N-terminal GST fusion with full length Aurora A (1-403 amino acids); purchased Carna Biosciences 05-101
T13 sequence (O14965 1-403): T10 sequence (O14965 1-403)
Outline: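 GST-tagged full-length Aurora A (0.067 ng/ul) with 15 uM ATP (KM) and 1 uM FITC-LRRASLG peptide in 100 mM HEPES pH 7.5, 1 mM MgCl2, 1 mM DTT, Brij-35; 90 min at 25 C, EDTA stop. Off-chip mobility shift read of substrate-to-product conversion; IC50 from sigmoidal dose-response.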

T1 sequence (P00519 whole entry, species assumed): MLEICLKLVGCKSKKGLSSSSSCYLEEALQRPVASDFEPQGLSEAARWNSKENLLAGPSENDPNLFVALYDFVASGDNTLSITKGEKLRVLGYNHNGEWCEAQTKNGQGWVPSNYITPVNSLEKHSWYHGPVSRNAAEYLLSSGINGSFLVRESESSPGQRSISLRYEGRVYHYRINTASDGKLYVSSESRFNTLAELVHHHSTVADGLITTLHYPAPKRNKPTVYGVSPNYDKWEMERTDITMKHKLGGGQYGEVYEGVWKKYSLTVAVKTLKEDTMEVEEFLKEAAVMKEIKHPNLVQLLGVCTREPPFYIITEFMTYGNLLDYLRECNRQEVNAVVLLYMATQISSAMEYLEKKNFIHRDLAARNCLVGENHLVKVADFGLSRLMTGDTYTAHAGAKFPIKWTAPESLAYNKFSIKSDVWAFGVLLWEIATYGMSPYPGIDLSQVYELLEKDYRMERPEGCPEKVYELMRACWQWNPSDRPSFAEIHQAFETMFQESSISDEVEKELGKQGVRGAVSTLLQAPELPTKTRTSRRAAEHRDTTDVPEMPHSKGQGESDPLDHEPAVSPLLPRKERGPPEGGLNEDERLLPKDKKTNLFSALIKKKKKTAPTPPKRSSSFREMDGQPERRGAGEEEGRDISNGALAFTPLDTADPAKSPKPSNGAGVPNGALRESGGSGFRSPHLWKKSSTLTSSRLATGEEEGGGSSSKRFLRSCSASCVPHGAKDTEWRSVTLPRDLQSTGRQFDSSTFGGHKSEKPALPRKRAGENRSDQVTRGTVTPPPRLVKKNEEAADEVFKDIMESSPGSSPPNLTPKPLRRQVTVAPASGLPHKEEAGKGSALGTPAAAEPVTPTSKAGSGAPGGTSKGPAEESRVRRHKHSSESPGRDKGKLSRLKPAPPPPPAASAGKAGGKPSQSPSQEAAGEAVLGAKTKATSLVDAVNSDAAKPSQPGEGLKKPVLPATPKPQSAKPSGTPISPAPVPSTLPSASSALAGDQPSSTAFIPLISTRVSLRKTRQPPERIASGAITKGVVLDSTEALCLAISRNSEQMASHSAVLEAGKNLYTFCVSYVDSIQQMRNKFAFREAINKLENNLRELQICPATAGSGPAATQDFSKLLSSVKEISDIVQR

Compound	inhibition at 10 µM (ABL)	inhibition at 10 µM (FYN)	inhibition at 10 µM (SRC)	inhibition at 10 µM (LYN)	inhibition at 10 µM (LCK)	inhibition at 10 µM (GSK3b)	inhibition at 10 µM (PKA)	inhibition at 10 µM (CK1d)	inhibition at 1 µM (ABL)	inhibition at 10 µM (CHK2)	inhibition at 1 µM (FYN)	inhibition at 1 µM (SRC)	inhibition at 1 µM (LCK)	inhibition at 1 µM (AurA)	inhibition at 10 µM (AurA)	inhibition at 10 µM (PKD2)	inhibition at 10 µM (RSK1)	inhibition at 1 µM (CHK2)	inhibition at 1 µM (LYN)	IC50 (GST-Aurora A)
O=c1[nH]c2ncc(NCc3ccccc3)cc2c2ccccc12 [Example 13, 2-Benzylamino-5H-benzo[c][1,8]naphthyridin-6-one]	50 to 70%	> 90%	70 to 90%	70 to 90%	50 to 70%	–	–	–	–	–	–	–	–	–	–	–	–	–	–	–
Clc1ccc2c(Nc3cccc(Br)c3)nc3ncccc3c2c1 [Example 59, (3-Bromo-phenyl)-(9-chloro-benzo[c][1,8]naphthyridin-6-yl)-amine]	50 to 70%	–	–	–	–	50 to 70%	–	–	–	–	–	–	–	–	–	–	–	–	–	–
O=c1[nH]c2nccc(Cl)c2c2ccccc12 [Example 83, 1-Chloro-5H-benzo[c][1,8]naphthyridin-6-one]	–	–	–	–	–	–	50 to 70%	50 to 70%	–	–	–	–	–	–	–	–	–	–	–	–
O=c1[nH]c2nccc(Nc3ccccc3)c2c2ccccc12 [Example 95, 1-Phenylamino-5H-benzo[c][1,8]naphthyridin-6-one]	> 90%	> 90%	> 90%	> 90%	70 to 90%	–	–	–	> 90%	50 to 70%	> 90%	> 90%	50 to 70%	50 to 70%	70 to 90%	–	–	–	–	–
COc1cccc(CNc2ccnc3[nH]c(=O)c4ccccc4c23)c1 [Example 98, 1-(3-Methoxy-benzylamino)-5H-benzo[c][1,8]naphthyridin-6-one]	–	50 to 70%	–	50 to 70%	–	–	–	–	–	–	–	–	–	–	50 to 70%	50 to 70%	–	–	–	–
Clc1nc2nccc(NCc3ccccc3)c2c2ccccc12 [Example 103, Benzyl-(6-chloro-benzo[c][1,8]naphthyridin-1-yl)-amine]	70 to 90%	70 to 90%	70 to 90%	70 to 90%	–	–	–	–	–	–	–	–	–	–	–	–	50 to 70%	–	–	–
COc1ccc(Nc2ccnc3[nH]c(=O)c4ccccc4c23)cc1 [Example 113, 1-(4-Methoxy-phenylamino)-5H-benzo[c][1,8]naphthyridin-6-one]	70 to 90%	–	70 to 90%	> 90%	70 to 90%	–	50 to 70%	–	50 to 70%	70 to 90%	70 to 90%	70 to 90%	50 to 70%	50 to 70%	70 to 90%	–	–	50 to 70%	70 to 90%	–
COc1ccccc1Nc1ccnc2[nH]c(=O)c3ccccc3c12 [Example 114, 1-(2-Methoxy-phenylamino)-5H-benzo[c][1,8]naphthyridin-6-one]	> 90%	50 to 70%	> 90%	> 90%	50 to 70%	–	–	–	70 to 90%	50 to 70%	70 to 90%	70 to 90%	–	70 to 90%	> 90%	–	–	–	70 to 90%	> 100 nM
O=C(Nc1ccc(Nc2ccnc3[nH]c(=O)c4ccccc4c23)cc1)c1ccccc1 [Example 120, N-[4-(6-Oxo-5,6-dihydro-benzo[c][1,8]naphthyridin-1-ylamino)-phenyl]-benzamide]	–	50 to 70%	50 to 70%	70 to 90%	–	–	–	50 to 70%	–	> 90%	–	–	–	> 90%	> 90%	–	–	> 90%	50 to 70%	< 11 nM
O=c1[nH]c2nccc(Nc3ccc(Oc4ccccc4)cc3)c2c2ccccc12 [Example 121, 1-(4-Phenoxy-phenylamino)-5H-benzo[c][1,8]naphthyridin-6-one]	–	70 to 90%	70 to 90%	70 to 90%	70 to 90%	–	–	–	–	–	–	–	–	–	50 to 70%	–	–	–	–	–
Clc1nc2nccc(Nc3ccccc3)c2c2ccccc12 [Example 139, (6-Chloro-benzo[c][1,8]naphthyridin-1-yl)-phenyl-amine]	> 90%	> 90%	> 90%	> 90%	70 to 90%	–	–	–	–	50 to 70%	–	–	–	–	70 to 90%	–	–	–	–	> 100 nM
